{"source": "patent US20220062240A1", "about": "“METHODS OF TREATING CANCER USING A CLK INHIBITOR” (BioSplice Therapeutics, Inc., priority 2018, published 2022)", "key": {"[1]": {"tested_on": "prostate cancer (5 cell lines)", "assay": "CellTiter-Glo Viability Assay, prostate cancer", "assay_type": "cell-based", "details": "Homo sapiens"}, "[2]": {"target": "T1, CLK2 (Homo sapiens, UniProt P49760)", "T1 construct": "purchased Thermo Fisher (Life Technologies), Z'-LYTE Kinase Assay Kits", "assay": "CLK2 kinase activity assay (Z-lyte, Ser/Thr 6 peptide)", "assay_type": "biochemical", "description": "All reactions were performed in duplicate."}, "[3]": {"tested_on": "colorectal cancer (6 cell lines)", "assay": "CellTiter-Glo Viability Assay, colorectal cancer", "assay_type": "cell-based", "details": "Homo sapiens"}, "[4]": {"tested_on": "T47D", "assay": "CellTiter-Glo Viability Assay, breast cancer", "assay_type": "cell-based", "details": "Homo sapiens, 96 h"}, "[5]": {"tested_on": "BT-549", "assay": "CellTiter-Glo Viability Assay, breast cancer", "assay_type": "cell-based", "details": "Homo sapiens, BT-549, 96 h"}, "[6]": {"tested_on": "CAMA1", "assay": "CellTiter-Glo Viability Assay, breast cancer", "assay_type": "cell-based", "details": "Homo sapiens, CAMA-1, 96 h"}, "[7]": {"tested_on": "MCF7", "assay": "CellTiter-Glo Viability Assay, breast cancer", "assay_type": "cell-based", "details": "Homo sapiens, MCF7, 96 h"}, "[8]": {"tested_on": "MDA-MB-231-Luc", "assay": "CellTiter-Glo Viability Assay, breast cancer", "assay_type": "cell-based", "details": "Homo sapiens, 96 h"}, "[9]": {"tested_on": "ZR-75-1", "assay": "CellTiter-Glo Viability Assay, breast cancer", "assay_type": "cell-based", "details": "Homo sapiens, ZR-75-1, 96 h"}, "[10]": {"tested_on": "HCC1599", "assay": "CellTiter-Glo Viability Assay, breast cancer", "assay_type": "cell-based", "details": "Homo sapiens, HCC1599, 96 h"}, "[11]": {"tested_on": "DU4475", "assay": "CellTiter-Glo Viability Assay, breast cancer", "assay_type": "cell-based", "details": "Homo sapiens, DU-4475, 96 h"}, "[12]": {"tested_on": "haematopoietic & lymphoid tumors (13 cell lines)", "assay": "CellTiter-Glo Viability Assay, haematopoietic & lymphoid tumors", "assay_type": "cell-based", "details": "Homo sapiens"}, "[13]": {"tested_on": "pancreatic cancer (8 cell lines)", "assay": "CellTiter-Glo Viability Assay, pancreatic cancer", "assay_type": "cell-based", "details": "Homo sapiens"}, "[14]": {"tested_on": "ovarian cancer (4 cell lines)", "assay": "CellTiter-Glo Viability Assay, ovarian cancer", "assay_type": "cell-based", "details": "Homo sapiens"}, "[15]": {"tested_on": "liver cancer (3 cell lines)", "assay": "CellTiter-Glo Viability Assay, liver cancer", "assay_type": "cell-based", "details": "Homo sapiens"}, "[16]": {"tested_on": "lung cancer (4 cell lines)", "assay": "CellTiter-Glo Viability Assay, lung cancer", "assay_type": "cell-based", "details": "Homo sapiens"}, "[17]": {"tested_on": "all 50 cell lines", "assay": "CellTiter-Glo Viability Assay, average across all cell lines", "assay_type": "cell-based", "details": "Homo sapiens, read-out: average EC50 for inhibition of cancer cell proliferation", "how_it_was_run": "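Luminescent ATP read-out (CellTiter-Glo) after a 4-day compound exposure at 37° C served as the viability measure. Cells were seeded at 300-3,000/well, compound wells run in duplicate against DMSO controls, and EC50 values came from fitted dose-response curves.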"}, "[18]": {"target": "CLK3 (Homo sapiens, UniProt P49761)", "sequence (P49761 whole entry)": "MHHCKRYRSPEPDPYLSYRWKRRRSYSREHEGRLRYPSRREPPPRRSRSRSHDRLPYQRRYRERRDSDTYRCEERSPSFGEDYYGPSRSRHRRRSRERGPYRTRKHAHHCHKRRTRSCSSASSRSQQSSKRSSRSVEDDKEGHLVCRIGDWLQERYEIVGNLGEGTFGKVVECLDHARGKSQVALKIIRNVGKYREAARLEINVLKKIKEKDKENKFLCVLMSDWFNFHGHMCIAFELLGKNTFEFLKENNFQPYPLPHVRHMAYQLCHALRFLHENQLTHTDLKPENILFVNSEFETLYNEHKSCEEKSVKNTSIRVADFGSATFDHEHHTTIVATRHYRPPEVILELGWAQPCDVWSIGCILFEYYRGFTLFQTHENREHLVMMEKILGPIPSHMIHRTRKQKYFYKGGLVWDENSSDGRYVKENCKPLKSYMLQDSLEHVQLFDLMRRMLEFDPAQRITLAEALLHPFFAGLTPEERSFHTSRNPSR", "assay": "CLK3 kinase activity assay (Z-lyte, Ser/Thr 18 peptide)"}}, "note": "Where two headings read alike, the source gives them in different places."}
{"smiles": "CN1CCC(N(C)c2cc(C(=O)Nc3cc4cc(-c5cnn(C)c5)ccc4cn3)ccn2)CC1", "note": "[Compound 72]", "values": [{"measurement": "EC50", "setting": "[1]; 22Rv1, read-out: Prostate cancer EC50 22Rv1", "result": 142, "unit": "nM"}, {"measurement": "EC50", "setting": "[1]; DU-145, read-out: Prostate cancer EC50 Du-145", "result": 232, "unit": "nM"}, {"measurement": "EC50", "setting": "[1]; LNCaP-Clone-FGC, read-out: Prostate cancer EC50 LNCap clone FGC", "result": 257, "unit": "nM"}, {"measurement": "EC50", "setting": "[1]; PC-3, read-out: Prostate cancer EC50 PC3", "result": 174, "unit": "nM"}, {"measurement": "EC50", "setting": "[1]; VCaP, read-out: Prostate cancer EC50 VCaP (Sigma)", "result": 509, "unit": "nM"}, {"measurement": "EC50", "setting": "[2]", "result": 1.3, "unit": "nM"}, {"measurement": "EC50", "setting": "[3]; DLD-1, read-out: Colorectal cancer, EC50 (μM) DLD-1", "result": 0.157, "unit": "µM"}, {"measurement": "EC50", "setting": "[3]; HCT-116, read-out: Colorectal cancer, EC50 (μM) HCT116", "result": 0.103, "unit": "µM"}, {"measurement": "EC50", "setting": "[3]; HT-29, read-out: Colorectal cancer, EC50 (μM) HT29", "result": 0.257, "unit": "µM"}, {"measurement": "EC50", "setting": "[3]; SW48, read-out: Colorectal cancer, EC50 (μM) SW48", "result": 0.057, "unit": "µM"}, {"measurement": "EC50", "setting": "[3]; SW480, read-out: Colorectal cancer, EC50 (μM) SW480", "result": 0.129, "unit": "µM"}, {"measurement": "EC50", "setting": "[3]; SW-620, read-out: Colorectal cancer, EC50 (μM) SW620", "result": 0.072, "unit": "µM"}, {"measurement": "EC50", "setting": "[4]", "result": 506, "unit": "nM"}, {"measurement": "EC50", "setting": "[5]", "result": 186, "unit": "nM"}, {"measurement": "EC50", "setting": "[6]", "result": 294, "unit": "nM"}, {"measurement": "EC50", "setting": "[7]", "result": 670, "unit": "nM"}, {"measurement": "EC50", "setting": "[8]", "result": 230, "unit": "nM"}, {"measurement": "EC50", "setting": "[9]", "result": 284, "unit": "nM"}, {"measurement": "EC50", "setting": "[10]", "result": 147, "unit": "nM"}, {"measurement": "EC50", "setting": "[11]", "result": 121, "unit": "nM"}, {"measurement": "EC50", "setting": "[12]; DND41, read-out: Haematopoietic & Lymphoid tumors, EC50 (μM) DND-41", "result": 0.167, "unit": "µM"}, {"measurement": "EC50", "setting": "[12]; HL-60, read-out: Haematopoietic & Lymphoid tumors, EC50 (μM) HL-60", "result": 0.453, "unit": "µM"}, {"measurement": "EC50", "setting": "[12]; JM1, read-out: Haematopoietic & Lymphoid tumors, EC50 (μM) JM1", "result": 0.047, "unit": "µM"}, {"measurement": "EC50", "setting": "[12]; JeKo-1, read-out: Haematopoietic & Lymphoid tumors, EC50 (μM) JeKo-1", "result": 0.054, "unit": "µM"}, {"measurement": "EC50", "setting": "[12]; Jurkat, read-out: Haematopoietic & Lymphoid tumors, EC50 (μM) JURKAT, Clone E6-1", "result": 0.337, "unit": "µM"}, {"measurement": "EC50", "setting": "[12]; Kasumi 1, read-out: Haematopoietic & Lymphoid tumors, EC50 (μM) KASUMI-1", "result": 0.13, "unit": "µM"}, {"measurement": "EC50", "setting": "[12]; MOLT-4, read-out: Haematopoietic & Lymphoid tumors, EC50 (μM) MOLT-4", "result": 0.189, "unit": "µM"}, {"measurement": "EC50", "setting": "[12]; MV4-11, read-out: Haematopoietic & Lymphoid tumors, EC50 (μM) MV-4-11", "result": 0.049, "unit": "µM"}, {"measurement": "EC50", "setting": "[12]; Rec1, read-out: Haematopoietic & Lymphoid tumors, EC50 (μM) REC-1", "result": 0.049, "unit": "µM"}, {"measurement": "EC50", "setting": "[12]; SU-DHL-4, read-out: Haematopoietic & Lymphoid tumors, EC50 (μM) SUDHL4", "result": 0.229, "unit": "µM"}, {"measurement": "EC50", "setting": "[12]; TF-1, read-out: Haematopoietic & Lymphoid tumors, EC50 (μM) TF-1", "result": 0.314, "unit": "µM"}, {"measurement": "EC50", "setting": "[12]; Toledo, read-out: Haematopoietic & Lymphoid tumors, EC50 (μM) TOLEDO", "result": 0.057, "unit": "µM"}, {"measurement": "EC50", "setting": "[12]; read-out: Haematopoietic & Lymphoid tumors, EC50 (μM) Loucy", "result": 0.139, "unit": "µM"}, {"measurement": "EC50", "setting": "[13]; BXPC-3, read-out: Pancreatic cancer, EC50 BxPC3", "result": 310, "unit": "nM"}, {"measurement": "EC50", "setting": "[13]; CAPAN-1, read-out: Pancreatic cancer, EC50 Capan1", "result": 215, "unit": "nM"}, {"measurement": "EC50", "setting": "[13]; Capan-2, read-out: Pancreatic cancer, EC50 Capan2", "result": 409, "unit": "nM"}, {"measurement": "EC50", "setting": "[13]; MIA PaCa-2, read-out: Pancreatic cancer, EC50 MIA PaCa-2", "result": 88, "unit": "nM"}, {"measurement": "EC50", "setting": "[13]; PANC-1, read-out: Pancreatic cancer, EC50 PANC-1", "result": 276, "unit": "nM"}, {"measurement": "EC50", "setting": "[13]; Panc 05.04, read-out: Pancreatic cancer, EC50 PANC 05.04", "result": 226, "unit": "nM"}, {"measurement": "EC50", "setting": "[13]; read-out: Pancreatic cancer, EC50 UPAFII", "result": 125, "unit": "nM"}, {"measurement": "EC50", "setting": "[14]; OV-90, read-out: Ovarian cancer, EC50 (μM) OV-90", "result": 0.317, "unit": "µM"}, {"measurement": "EC50", "setting": "[14]; OVCAR-3, read-out: Ovarian cancer, EC50 (μM) OVCAR-3", "result": 0.095, "unit": "µM"}, {"measurement": "EC50", "setting": "[14]; PA-1, read-out: Ovarian cancer, EC50 (μM) PA1", "result": 0.154, "unit": "µM"}, {"measurement": "EC50", "setting": "[14]; TOV112D, read-out: Ovarian cancer, EC50 (μM) TOV-112D", "result": 0.106, "unit": "µM"}, {"measurement": "EC50", "setting": "[15]; HepG2, read-out: Liver cancer, EC50 HEPG2", "result": 136, "unit": "nM"}, {"measurement": "EC50", "setting": "[15]; PLC-PRF-5, read-out: Liver cancer, EC50 PLC/PRF/5", "result": 386, "unit": "nM"}, {"measurement": "EC50", "setting": "[15]; SNU-398, read-out: Liver cancer, EC50 SNU398", "result": 51, "unit": "nM"}, {"measurement": "EC50", "setting": "[16]; A-427, read-out: Lung cancer, EC50 (μM) A427", "result": 0.136, "unit": "µM"}, {"measurement": "EC50", "setting": "[16]; HCC78, read-out: Lung cancer, EC50 (μM) HCC-78", "result": 0.211, "unit": "µM"}, {"measurement": "EC50", "setting": "[16]; NCI-H460, read-out: Lung cancer, EC50 (μM) NCI-H460", "result": 0.207, "unit": "µM"}, {"measurement": "EC50", "setting": "[16]; NCI-H522, read-out: Lung cancer, EC50 (μM) NCI-H522", "result": 0.119, "unit": "µM"}, {"measurement": "EC50", "setting": "[17]", "result": 206, "unit": "nM"}, {"measurement": "EC50", "setting": "[18]", "result": 19.9, "unit": "nM"}]}
